molecular target: T1, CXCR7 (Homo sapiens, UniProt P25106); test: PathHunter CHO-K1 CXCR7 b-arrestin recruitment assay (CXCR7 agonistic activity); assay type: cell-based; conditions: PathHunter CHO-K1 CXCR7 b-arrestin cell line
T1 construct: host or cells: CHO-K1 (PathHunter CHO-K1 CXCR7 b-arrestin cell line, stably transfected)
How it was run: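 Stable CHO-K1 line with C-terminally ProLink-tagged CXCR7 and β-arrestin 2–EA fusion; β-arrestin recruitment restores β-gal activity, read by chemiluminescence after 1 h RT detection. Cells seeded 24 h, starved in OPTIMEM 3–4 h, exposed to compounds 90 min at 37 °C in HBSS/HEPES/BSA. Geometric-mean EC50 from repeated measurements.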

T1 sequence (P25106 whole entry): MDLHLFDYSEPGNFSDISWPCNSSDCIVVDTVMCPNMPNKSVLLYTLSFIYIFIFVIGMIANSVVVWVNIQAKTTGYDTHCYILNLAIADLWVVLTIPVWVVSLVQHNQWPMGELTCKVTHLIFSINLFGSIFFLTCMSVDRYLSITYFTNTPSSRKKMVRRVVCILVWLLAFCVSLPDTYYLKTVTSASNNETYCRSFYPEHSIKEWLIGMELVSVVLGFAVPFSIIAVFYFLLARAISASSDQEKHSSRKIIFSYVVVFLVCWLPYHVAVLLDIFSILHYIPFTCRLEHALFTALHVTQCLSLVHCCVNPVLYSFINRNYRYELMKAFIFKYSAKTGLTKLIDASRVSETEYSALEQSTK
T1 sequence (P32121 whole entry partner): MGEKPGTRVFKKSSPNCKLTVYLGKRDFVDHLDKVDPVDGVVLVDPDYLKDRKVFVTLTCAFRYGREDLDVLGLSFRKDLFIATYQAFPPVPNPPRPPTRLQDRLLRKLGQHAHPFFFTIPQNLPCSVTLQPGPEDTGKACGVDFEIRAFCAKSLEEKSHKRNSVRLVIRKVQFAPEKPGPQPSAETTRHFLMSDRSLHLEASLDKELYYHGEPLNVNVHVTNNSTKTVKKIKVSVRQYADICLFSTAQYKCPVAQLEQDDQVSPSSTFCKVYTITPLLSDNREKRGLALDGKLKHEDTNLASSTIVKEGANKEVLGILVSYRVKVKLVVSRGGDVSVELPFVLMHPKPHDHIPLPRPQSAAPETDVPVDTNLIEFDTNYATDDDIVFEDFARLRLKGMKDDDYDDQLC

How did the EC50 turn out when `CCOC(=O)N1CCc2c(cccc2NCC(=O)N(CCNC)Cc2ncccc2C(F)(F)F)C1` [compound 420, 5-({[(2-Methylamino-ethyl)-(3-trifluoromethyl-pyridin-2-ylmethyl)-carbamoyl]-methyl}-amino)-3,4-dihydro-1H-isoquinoline-2-carboxylic acid ethyl ester] was run?
The EC50 was 0.021 µM.

How did the EC50 turn out when `C#CCOC(=O)N1CCc2c(cccc2NCC(=O)N(CCNC)Cc2ncccc2C(F)(F)F)C1` [compound 421, 5-({[(2-Methylamino-ethyl)-(3-trifluoromethyl-pyridin-2-ylmethyl)-carbamoyl]-methyl}-amino)-3,4-dihydro-1H-isoquinoline-2-carboxylic acid prop-2-ynyl ester] was run?
The EC50 was 0.029 µM.

`C=CCOC(=O)N1CCc2c(cccc2NCC(=O)N(CCNC)Cc2ncccc2C(F)(F)F)C1` [compound 422, 5-({[(2-Methylamino-ethyl)-(3-trifluoromethyl-pyridin-2-ylmethyl)-carbamoyl]-methyl}-amino)-3,4-dihydro-1H-isoquinoline-2-carboxylic acid allyl ester] was tested. Which EC50 did it give?
The EC50 was 0.033 µM.

`CCCOC(=O)N1CCc2c(cccc2NCC(=O)N(CCNC)Cc2ncccc2C(F)(F)F)C1` [compound 423] was tested. Which EC50 did it give?
The EC50 was 0.079 µM.

Which EC50 does the source give for `CNCCN(Cc1ncccc1C(F)(F)F)C(=O)CNc1cccc2c1CCN(C(=O)OC(C)C)C2` [compound 424] here?
The EC50 was 0.06 µM.

Which EC50 does the source give for `CNCCN(Cc1ncccc1C(F)(F)F)C(=O)CNc1cccc2c1CCN(C(=O)OCCF)C2` [compound 425, 5-({[(2-Methylamino-ethyl)-(3-trifluoromethyl-pyridin-2-ylmethyl)-carbamoyl]-methyl}-amino)-3,4-dihydro-1H-isoquinoline-2-carboxylic acid 2-fluoro-ethyl ester] here?
The EC50 was 0.027 µM.

With `CNCCN(Cc1ncccc1C(F)(F)F)C(=O)CNc1cccc2c1CCN(C(=O)OCC(C)C)C2` [compound 426] as the molecule, how does the EC50 read?
Its EC50 is 0.074 µM.

`CNCCN(Cc1ncccc1C(F)(F)F)C(=O)CNc1cccc2c1CCN(C(=O)OCCOC)C2` [compound 427] was tested. Which EC50 did it give?
Its EC50 is 0.106 µM.

With `CNCCN(Cc1ncccc1C(F)(F)F)C(=O)CNc1cccc2c1CCN(C(=O)OCC(C)(C)C)C2` [compound 428] as the molecule, how does the EC50 read?
Its EC50 is 0.12 µM.

`CCNC(=O)N1CCc2c(cccc2NCC(=O)N(CCNC)Cc2ncccc2C(F)(F)F)C1` [compound 429, 5-({[(2-Methylamino-ethyl)-(3-trifluoromethyl-pyridin-2-ylmethyl)-carbamoyl]-methyl}-amino)-3,4-dihydro-1H-isoquinoline-2-carboxylic acid ethylamide] was tested. Which EC50 did it give?
Its EC50 is 0.007 µM.

How did the EC50 turn out when `CNCCN(Cc1ncccc1C(F)(F)F)C(=O)CNc1cccc2c1CCN(C(=O)NC(C)C)C2` [compound 430, 5-({[(2-Methylamino-ethyl)-(3-trifluoromethyl-pyridin-2-ylmethyl)-carbamoyl]-methyl}-amino)-3,4-dihydro-1H-isoquinoline-2-carboxylic acid isopropylamide] was run?
Its EC50 is 0.009 µM.

Which EC50 does the source give for `CCCCNC(=O)N1CCc2c(cccc2NCC(=O)N(CCNC)Cc2ncccc2C(F)(F)F)C1` [compound 431] here?
The EC50 was 0.12 µM.

With `CNCCN(Cc1ncccc1C(F)(F)F)C(=O)CNc1cccc2c1CCN(C(=O)NC(C)(C)C)C2` [compound 432, 5-({[(2-Methylamino-ethyl)-(3-trifluoromethyl-pyridin-2-ylmethyl)-carbamoyl]-methyl}-amino)-3,4-dihydro-1H-isoquinoline-2-carboxylic acid tert-butylamide] as the molecule, how does the EC50 read?
The EC50 was 0.042 µM.

How did the EC50 turn out when `CNCCN(Cc1ncccc1C(F)(F)F)C(=O)CNc1cccc2c1CCN(C(=O)NC1CCCCC1)C2` [compound 433] was run?
Its EC50 is 0.166 µM.

With `CNCCN(Cc1ccccc1Br)C(=O)CNc1cccc2c1CCN(CC1CC1)C2` [compound 435, N-(2-Bromo-benzyl)-2-(2-cyclopropylmethyl-1,2,3,4-tetrahydro-isoquinolin-5-ylamino)-N-(2-methylamino-ethyl)-acetamide] as the molecule, how does the EC50 read?
Its EC50 is 0.007 µM.

How did the EC50 turn out when `CNCCN(Cc1ncccc1Cl)C(=O)CNc1cccc2c1CCN(CC1CC1)C2` [compound 436, N-(3-Chloro-pyridin-2-ylmethyl)-2-(2-cyclopropylmethyl-1,2,3,4-tetrahydro-isoquinolin-5-ylamino)-N-(2-methylamino-ethyl)-acetamide] was run?
The EC50 was 0.009 µM.

For `CNCCN(Cc1ncccc1C(F)(F)F)C(=O)CNc1cccc2c1CCN(CC1CC1)C2` [compound 437, 2-(2-Cyclopropylmethyl-1,2,3,4-tetrahydro-isoquinolin-5-ylamino)-N-(2-methylamino-ethyl)-N-(3-trifluoromethyl-pyridin-2-ylmethyl)-acetamide], which EC50 is on record?
The EC50 was 0.005 µM.

`O=C(CNc1cccc2c1CCN(CC1CC1)C2)N(CCN1CCNCC1)Cc1ccccc1C(F)(F)F` [compound 438, 2-(2-Cyclopropylmethyl-1,2,3,4-tetrahydro-isoquinolin-5-ylamino)-N-(2-piperazin-1-yl-ethyl)-N-(2-trifluoromethyl-benzyl)-acetamide] was tested. Which EC50 did it give?
Its EC50 is 0.015 µM.

`CCNCCN(Cc1ccccc1C(F)(F)F)C(=O)CNc1cccc2c1CCN(CC1CC1)C2` [compound 439, 2-(2-Cyclopropylmethyl-1,2,3,4-tetrahydro-isoquinolin-5-ylamino)-N-(2-ethylamino-ethyl)-N-(2-trifluoromethyl-benzyl)-acetamide] was tested. Which EC50 did it give?
Its EC50 is 0.003 µM.

For `O=C(CNc1cccc2c1CCN(CC1CC1)C2)N(Cc1ccccc1C(F)(F)F)C1CCNCC1` [compound 440, 2-(2-Cyclopropylmethyl-1,2,3,4-tetrahydro-isoquinolin-5-ylamino)-N-piperidin-4-yl-N-(2-trifluoromethyl-benzyl)-acetamide], which EC50 is on record?
Its EC50 is 0.015 µM.

With `NCCN(Cc1ccccc1C(F)(F)F)C(=O)CNc1cccc2c1CCN(CC1CC1)C2` [compound 442, N-(2-Amino-ethyl)-2-(2-cyclopropylmethyl-1,2,3,4-tetrahydro-isoquinolin-5-ylamino)-N-(2-trifluoromethyl-benzyl)-acetamide] as the molecule, how does the EC50 read?
The EC50 was 0.01 µM.

With `CCN1CCc2cccc(NCC(=O)N(CCNC)Cc3ccccc3)c2C1` [compound 443] as the molecule, how does the EC50 read?
The EC50 was 0.147 µM.

How did the EC50 turn out when `CCN1CCc2cccc(NCC(=O)N(CCNC)Cc3ccccc3C(F)(F)F)c2C1` [compound 444, 2-(2-Ethyl-1,2,3,4-tetrahydro-isoquinolin-8-ylamino)-N-(2-methylamino-ethyl)-N-(2-trifluoromethyl-benzyl)-acetamide] was run?
The EC50 was 0.015 µM.

Which EC50 does the source give for `CNCCN(Cc1ccccc1C(F)(F)F)C(=O)CNc1cccc2c1CCN(C(C)=O)C2` [compound 445, 2-(2-Acetyl-1,2,3,4-tetrahydro-isoquinolin-5-ylamino)-N-(2-methylamino-ethyl)-N-(2-trifluoromethyl-benzyl)-acetamide] here?
The EC50 was 0.011 µM.

With `CNCCN(Cc1ccccc1Cl)C(=O)CNc1cccc2c1CCN(CC1CC1)C2` [compound 446, N-(2-Chloro-benzyl)-2-(2-cyclopropylmethyl-1,2,3,4-tetrahydro-isoquinolin-5-ylamino)-N-(2-methylamino-ethyl)-acetamide] as the molecule, how does the EC50 read?
Its EC50 is 0.004 µM.

For `CC(C)N(C)CCN(Cc1ccccc1C(F)(F)F)C(=O)CNc1cccc2c1CCN(CC1CC1)C2` [compound 449, 2-(2-Cyclopropylmethyl-1,2,3,4-tetrahydro-isoquinolin-5-ylamino)-N-[2-(isopropyl-methyl-amino)-ethyl]-N-(2-trifluoromethyl-benzyl)-acetamide], which EC50 is on record?
The EC50 was 0.001 µM.

`CN(CCN(Cc1ccccc1C(F)(F)F)C(=O)CNc1cccc2c1CCN(CC1CC1)C2)CC1CC1` [compound 450, N-[2-(Cyclopropylmethyl-methyl-amino)-ethyl]-2-(2-cyclopropylmethyl-1,2,3,4-tetrahydro-isoquinolin-5-ylamino)-N-(2-trifluoromethyl-benzyl)-acetamide] was tested. Which EC50 did it give?
Its EC50 is 0.001 µM.

`CN(CCN(Cc1ccccc1C(F)(F)F)C(=O)CNc1cccc2c1CCN(CC1CC1)C2)C1CCCC1` [compound 451, N-[2-(Cyclopentyl-methyl-amino)-ethyl]-2-(2-cyclopropylmethyl-1,2,3,4-tetrahydro-isoquinolin-5-ylamino)-N-(2-trifluoromethyl-benzyl)-acetamide] was tested. Which EC50 did it give?
Its EC50 is 0.001 µM.

Which EC50 does the source give for `CCN(CCN(Cc1ccccc1C(F)(F)F)C(=O)CNc1cccc2c1CCN(CC1CC1)C2)CC1(C)COC1` [compound 453] here?
Its EC50 is 0.006 µM.

How did the EC50 turn out when `CN(C)CCN(Cc1ccccc1C(F)(F)F)C(=O)CCc1cccc2c1CN(CC1CC1)CC2` [compound 454, 3-(2-Cyclopropylmethyl-1,2,3,4-tetrahydro-isoquinolin-8-yl)-N-(2-dimethylamino-ethyl)-N-(2-trifluoromethyl-benzyl)-propionamide] was run?
Its EC50 is 0.003 µM.

`CN(C)CCN(Cc1ncccc1Cl)C(=O)CNc1cccc2c1CN(C1CCC1)CC2` [compound 455, N-(3-Chloro-pyridin-2-ylmethyl)-2-(2-cyclobutyl-1,2,3,4-tetrahydro-isoquinolin-8-ylamino)-N-(2-dimethylamino-ethyl)-acetamide] was tested. Which EC50 did it give?
Its EC50 is 0.01 µM.

How did the EC50 turn out when `CN(C)CCN(Cc1ncccc1Br)C(=O)CNc1cccc2c1CN(C1CCC1)CC2` [compound 456, N-(3-Bromo-pyridin-2-ylmethyl)-2-(2-cyclobutyl-1,2,3,4-tetrahydro-isoquinolin-8-ylamino)-N-(2-dimethylamino-ethyl)-acetamide] was run?
Its EC50 is 0.008 µM.

With `CC(C)(O)CN(Cc1ncccc1Cl)C(=O)CNc1cccc2c1CN(C1CCC1)CC2` [compound 457] as the molecule, how does the EC50 read?
Its EC50 is 0.232 µM.

Which EC50 does the source give for `CC(C)(O)CN(Cc1ncccc1Br)C(=O)CNc1cccc2c1CN(C1CCC1)CC2` [compound 458] here?
The EC50 was 0.109 µM.

How did the EC50 turn out when `C=CCN(C)CCN(Cc1ccccc1C(F)(F)F)C(=O)CNc1cccc2c1CN(CC=C)CC2` [compound 463, N-[2-(Allyl-methyl-amino)-ethyl]-2-(2-allyl-1,2,3,4-tetrahydro-isoquinolin-8-ylamino)-N-(2-trifluoromethyl-benzyl)-acetamide] was run?
The EC50 was 0.016 µM.

For `C=CCN1CCc2cccc(NCC(=O)N(CCN(C)C)Cc3ccccc3OC(F)(F)F)c2C1` [compound 464, 2-(2-Allyl-1,2,3,4-tetrahydro-isoquinolin-8-ylamino)-N-(2-dimethylamino-ethyl)-N-(2-trifluoromethoxy-benzyl)-acetamide], which EC50 is on record?
Its EC50 is 0.036 µM.
